Assay: Antimicrobial efficacy of the inorganic salt on its own
Conditions: salt alone at the concentration employed in the solutions

Structure (SMILES) | antimicrobial efficacy of the salt on its own
[Cl-].[Na+] [sodium chloride] | no antimicrobial efficacy on its own
N.N.O=S(=O)(O)O [ammonium sulphate] | no antimicrobial efficacy on its own

From patent publication US11076598B2, “Peroxide-based disinfecting solutions containing inorganic salts” (Diversey, Inc., priority 2017, dated 2021)
